Laboratory results: patent US6784201B2, “Benzothiepines having activity as inhibitors of ileal bile acid transport and taurocholate uptake” (G.D. Searle & Company, priority 1994, dated 2004)
Read-outs that look alike come from different tables or passages of the source.

Molecular target: T1, human IBAT (Homo sapiens, UniProt Q12908)
T1 construct: expressed in transfected cells; host or cells: Baby hamster kidney (BHK) cells, clone H14
T1 sequence (Q12908 1-348): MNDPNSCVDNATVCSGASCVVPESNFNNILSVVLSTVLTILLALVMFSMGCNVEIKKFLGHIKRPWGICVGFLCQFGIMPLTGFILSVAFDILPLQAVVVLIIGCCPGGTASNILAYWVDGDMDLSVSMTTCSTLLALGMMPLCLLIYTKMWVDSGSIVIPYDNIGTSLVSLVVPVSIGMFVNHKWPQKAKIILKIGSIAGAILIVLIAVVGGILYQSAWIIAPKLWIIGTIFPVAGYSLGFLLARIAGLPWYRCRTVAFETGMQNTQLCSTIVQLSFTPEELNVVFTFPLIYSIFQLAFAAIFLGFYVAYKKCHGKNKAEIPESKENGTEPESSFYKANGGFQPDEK
Assay: In vitro assay of IBAT-mediated uptake of [14C]-taurocholate (TC) in H14 cells
Format: cell-based
Procedure, shortened: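 BHK cells stably expressing human IBAT (H14) were incubated 2 h at 37° C with compound and 3 μM final [14C]-taurocholate in DMEM (4.5 g/L glucose) plus 0.2% fatty acid-free BSA. After cold PBS washes, cell-associated radioactivity was measured by scintillation counting.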

| Compound | IC50 (read-out: Human TC IC50) [nM] | IC50 (Human TC IC50) [nM] |
| --- | --- | --- |
| CCCCC1(CC)CS(=O)(=O)c2ccc(N(C)C)cc2C(c2ccc(O)c(F)c2)C1O (stereo not shown) [Example 1118] | 10 |  |
| CCCCC1(CCCC)CS(=O)(=O)c2ccc(N(C)C)cc2C(c2cccc(OCCOCCOCC[n+]3ccc(-c4ccccc4)cc3)c2)C1O (stereo not shown) [Example 1119] | 10 |  |
| CCCCC1(CCCC)CS(=O)(=O)c2ccc(N(C)C)cc2C(c2cccc(OCCOCCOCC[N+](CC)(CC)CC(OCC)OCC)c2)C1O (stereo not shown) [Example 1120] | 10 |  |
| CCCCC1(CCCC)CS(=O)(=O)c2ccc(N(C)C)cc2C(c2cccc(OCCOCCOCC[n+]3ccc(C4CC=CCC4)cc3)c2)C1O (stereo not shown) [Example 1121] | 10 |  |
| CCCCC1(CCCC)CS(=O)(=O)c2ccc(N(C)C)cc2C(c2ccc(OCCOCC[N+](CC)(CC)CCN(CC)CC)c(F)c2)C1O (stereo not shown) [Example 1122] | 11 |  |
| CCCCC1(CCCC)CS(=O)(=O)c2ccc(N(C)C)cc2C(c2ccccc2)C1O (stereo not shown) [Example 1123] | 11 |  |
| CCCCC1(CCCC)CS(=O)(=O)c2ccc(N(C)C)cc2C(c2cccc(OC)c2)C1O (stereo not shown) [Example 1124] | 11 |  |
| CCCCC1(CCCC)CS(=O)(=O)c2ccc(N(C)C)cc2C(c2ccc(OC)c(Cl)c2)C1O (stereo not shown) [Example 1125] | 12 |  |
| CCCCC1(CC)CS(=O)(=O)c2ccc(N(C)C)cc2C(c2cccc(OCCOCCOCCI)c2)C1O (stereo not shown) [Example 1126] | 13 |  |
| CCCCC1(CCCC)CS(=O)(=O)c2ccc(N(C)C)cc2C(c2cccc(OCCOCCOCC[n+]3ccc(CCC)cc3)c2)C1O (stereo not shown) [Example 1127] | 13 |  |
| CCCCC1(CCCC)CS(=O)(=O)c2ccc(N(C)C)cc2C(c2ccc(O)c(F)c2)C1O (stereo not shown) [Example 1128] | 17 |  |
| CCCCC1(CCCC)CS(=O)(=O)c2c(cccc2N(C)C)C(c2ccc(F)cc2)C1O (stereo not shown) [Example 1129] | 18 |  |
| CCCCC1(CCCC)CS(=O)(=O)c2ccc(N(C)C)cc2C(c2ccc(F)c(Cl)c2)C1O (stereo not shown) [Example 1130] | 18 |  |
| CCCCC1(CC)CS(=O)(=O)c2ccc(N(C)C)cc2C(c2ccc(OC)cc2)C1O (stereo not shown) [Example 1131] | 20 |  |
| CCCCC1(CCCC)CS(=O)(=O)c2ccc(N(C)C)cc2C(c2cccc(OCCOCCOCC[n+]3ccc4c(c3)CCCC4)c2)C1O (stereo not shown) [Example 1132] | 20 |  |
| CCCCC1(CCCC)CS(=O)(=O)c2ccc(N(C)C)cc2C(c2ccc(CC#N)cc2)C1O (stereo not shown) [Example 1133] | 20 |  |
| CCCCC1(CC)CS(=O)(=O)c2ccc(N(C)C)cc2C(c2cccc(OCCCCOC(C)=O)c2)C1O (stereo not shown) [Example 1134] | 20 |  |
| CCCCC1(CCCC)CS(=O)(=O)c2ccc(N(C)C)cc2C(c2ccc(OC)c(OC)c2)C1O (stereo not shown) [Example 1135] | 21 |  |
| CCCCC1(CCCC)CS(=O)(=O)c2ccc(N(C)C)cc2C(c2cccc(OCCOCCOCCI)c2)C1O (stereo not shown) [Example 1136] | 21 |  |
| CCCCC1(CCCC)CS(=O)(=O)c2c(NN(C)C)cccc2C(c2ccc(F)cc2)C1O (stereo not shown) [Example 1137] | 21 |  |
| CCCCC1(CCCC)CS(=O)(=O)c2ccc(N(C)C)cc2C(c2cccc(OCCOCCOCC[n+]3ccc(C(C)(C)C)cc3)c2)C1O (stereo not shown) [Example 1138] | 22 |  |
| CCCCC1(CCCC)CS(=O)(=O)c2ccc(N(C)C)cc2C(c2ccc(F)c(F)c2)C1O (stereo not shown) [Example 1139] | 22 |  |
| CCCCC1(CCCC)CS(=O)(=O)c2ccc(NN(C)C)cc2C(c2cccc(OC)c2)C1O (stereo not shown) [Example 1140] | 23 |  |

| Compound | IC50 (read-out: Human TC IC50) [nM] | IC50 (Human TC IC50) [nM] |
| --- | --- | --- |
| CCCCC1(CCCC)CS(=O)(=O)c2ccc(N(C)CC)cc2C(c2ccc(F)cc2)C1O (stereo not shown) [Example 1141] | 23 |  |
| CCCCC1(CCCC)CS(=O)(=O)c2ccc(N(C)C)cc2C(c2ccc(OCCOCCSCCN(CC)CC)c(F)c2)C1O (stereo not shown) [Example 1142] | 24 |  |
| CCCCC1(CCCC)CS(=O)(=O)c2c(cccc2N(C)C)C(c2ccc(OC)cc2)C1O (stereo not shown) [Example 1145] | 29 |  |
| CCCCC1(CCCC)CS(=O)(=O)c2ccc(N(C)C)cc2C(c2ccc(OCCCCCCCCCC[N+](C)(C)C)cc2)C1O (stereo not shown) [Example 1146] | 29 |  |
| CCCCC1(CCCC)CS(=O)(=O)c2ccc(N(CC)CC)cc2C(c2cccc(OC)c2)C1O (stereo not shown) [Example 1147] | 29 |  |
| CCCCC1(CCCC)CS(=O)(=O)c2ccc([S+](C)C)cc2C(c2ccc(F)cc2)C1O (stereo not shown) [Example 1148] | 30 |  |
| CCCCC1(CCCC)CS(=O)(=O)c2ccc(NCC)cc2C(c2ccc(F)cc2)C1O (stereo not shown) [Example 1149] | 30 |  |
| CCCCC1(CCCC)CS(=O)(=O)c2ccc(N(C)CC)cc2C(c2cccc(OC)c2)C1O (stereo not shown) [Example 1150] | 30 |  |
| CCCCC1(CCCC)CS(=O)(=O)c2ccc(N(C)COCC)cc2C(c2ccccc2)C1O (stereo not shown) [Example 1152] | 36 |  |
| CCCCC1(CCCC)CS(=O)(=O)c2ccc(NC)cc2C(c2ccc(F)cc2)C1O (stereo not shown) [Example 1153] | 37 |  |
| CCCCC1(CCCC)CS(=O)(=O)c2c(OC)cccc2C(c2cccc(OC)c2)C1O (stereo not shown) [Example 1154] | 37 |  |
| CCCCC1(CCCC)CS(=O)(=O)c2ccc(C)cc2C(c2ccc(F)cc2)C1O (stereo not shown) [Example 1155] | 39 |  |
| CCCCC1(CCCC)CS(=O)(=O)c2ccc(SC)cc2C(c2ccc(F)cc2)C1O (stereo not shown) [Example 1156] | 39 |  |
| CCCCC1(CCCC)CS(=O)(=O)c2c(cc(F)cc2N(C)C)C(c2ccc(F)cc2)C1O (stereo not shown) [Example 1157] | 40 |  |
| CCCCC1(CCCC)CS(=O)(=O)c2ccc(OC)cc2C(c2ccncc2)C1O (stereo not shown) [Example 1158] | 60 |  |
| CCCCC1(CC)CS(=O)(=O)c2ccc(N(C)C)cc2C(c2ccccc2)C1O (stereo not shown) [Example 1159] |  | 60 |
| CCCCC1(CCCC)CS(=O)(=O)c2ccc(N(CC)CC)cc2C(c2ccc(F)cc2)C1O (stereo not shown) [Example 1160] | 62 |  |
| CCCCC1(CCCC)CS(=O)(=O)c2ccc(N(C)C)cc2C(c2cc(Cl)c(OC)c(Cl)c2)C1O (stereo not shown) [Example 1161] | 63 |  |
| CCCCC1(CCCC)CS(=O)(=O)c2ccc(N(C)C)cc2C(c2ccccc2)C1O (stereo not shown) [Example 1162] | 63 |  |
| CCCCC1(CCCC)CS(=O)(=O)c2ccc(OC)cc2C(c2cccc(N(C)C)c2)C1O (stereo not shown) [Example 1163] | 90 |  |
| CCCCC1(CCCC)CS(=O)(=O)c2ccc(OC)cc2C(c2ccncc2)C1O (stereo not shown) [Example 1164] | 93 |  |
| CCCCC1(CCCC)CS(=O)(=O)c2ccc([N+](C)(C)C)cc2C(c2ccc(OC)c(F)c2)C1O (stereo not shown) [Example 1165] | 110 |  |
| CCCCC1(CCCC)CS(=O)(=O)c2ccc([N+](C)(C)C)cc2C(c2cccc(O)c2)C1O (stereo not shown) [Example 1166] | 110 |  |

Second part, led by results:

| IC50 (read-out: Human TC IC50) [nM] | Compound | IC50 (Human TC IC50) [nM] |
| --- | --- | --- |
| 6 | CCCCC1(CCCC)CS(=O)(=O)c2ccc(N(C)C)cc2C(c2cccc(OCCOCCOCC[N+](C)(C)CC(=O)OCC)c2)C1O (stereo not shown) [Example 1093] |  |
| 6 | CCCCC1(CCCC)CS(=O)(=O)c2ccc(N(C)C)cc2C(c2cccc(OCCOCCOCC[n+]3cccc(C(=O)OC)c3)c2)C1O (stereo not shown) [Example 1094] |  |
| 6 | CCCCC1(CCCC)CS(=O)(=O)c2ccc(N(C)C)cc2C(c2cccc(OCCOCCOCC[N+]34CCN(CC3)CC4)c2)C1O (stereo not shown) [Example 1095] |  |
| 6 | CCCCC1(CCCC)CS(=O)(=O)c2ccc(N(C)C)cc2C(c2cccc(OCCOCCOCC[n+]3ccc(C)cc3)c2)C1O (stereo not shown) [Example 1096] |  |
| 6 | CCCCC1(CCCC)CS(=O)(=O)c2ccc(N(C)C)cc2C(c2cccc(NC(=O)CCBr)c2)C1O (stereo not shown) [Example 1097] |  |
| 6.3 | CCCCC1(CC)CS(=O)(=O)c2ccc(N(C)C)cc2C(c2ccc(OC)cc2)C1O (stereo not shown) [Example 1099] |  |
| 6.8 | CCCCC1(CCCC)CS(=O)(=O)c2ccc(N(C)C)cc2C(c2ccc(OC)cc2)C1O (stereo not shown) [Example 1100] |  |
| 7 | CCCCC1(CCCC)CS(=O)(=O)c2ccc(N(C)C)cc2C(c2ccc(OCCOCC[n+]3ccc(N(C)C)cc3)c(F)c2)C1O (stereo not shown) [Example 1101] |  |
| 7 | CCCCC1(CCCC)CS(=O)(=O)c2ccc(N(C)C)cc2C(c2ccc(OCCOCCOCC[N+](C)(C)CC[N+](C)(C)C)cc2)C1O (stereo not shown) [Example 1103] |  |
| 7 | CCCCC1(CCCC)CS(=O)(=O)c2ccc(N(C)C)cc2C(c2cccc(OCCOCCOCC[N+]3=C4CCCCCN4CCC3)c2)C1O (stereo not shown) [Example 1104] |  |
| 7.3 | CCCCC1(CCCC)CS(=O)(=O)c2ccc(N(C)C)cc2C(c2cccc(O)c2)C1O (stereo not shown) [Example 1106] |  |
| 7.5 | CCCCC1(CCCC)CS(=O)(=O)c2ccc(N(C)C)cc2C(c2cccc(C[n+]3ccccc3)c2)C1O (stereo not shown) [Example 1107] |  |
| 7.5 | CCCCC1(CCCC)CS(=O)(=O)c2ccc(N(C)C)cc2C(c2cccnc2)C1O (stereo not shown) [Example 1108] |  |
| 8 | CCCCC1(CCCC)CS(=O)(=O)c2ccc(N(C)C)cc2C(c2ccc(OCc3ccccn3)c(F)c2)C1O (stereo not shown) [Example 1109] |  |
| 8 | CCCCC1(CCCC)CS(=O)(=O)c2ccc(N(C)C)cc2C(c2cccc(OCCOCCOCC[n+]3ccc(N4CCCC4)cc3)c2)C1O (stereo not shown) [Example 1110] |  |
| 8 | CCCCC1(CCCC)CS(=O)(=O)c2ccc(N(C)C)cc2C(c2ccc(OCCC[n+]3ccc(CCC(=O)O)cc3)c(F)c2)C1O (stereo not shown) [Example 1111] |  |
| 8 | CCCCC1(CCCC)CS(=O)(=O)c2ccc(N(C)C)cc2C(c2ccncc2)C1O (stereo not shown) [Example 1112] |  |
| 9 | CCCCC1(CCCC)CS(=O)(=O)c2ccc(N(C)C)cc2C(c2ccc(OCc3ccncc3)c(F)c2)C1O (stereo not shown) [Example 1113] |  |
| 9 | CCCCC1(CCCC)CS(=O)(=O)c2ccc(NC)cc2C(c2cccc(OC)c2)C1O (stereo not shown) [Example 1114] |  |
| 9.8 | CCCCC1(CCCC)CS(=O)(=O)c2ccc(N(C)C)cc2C(c2ccc(F)cc2)C1O (stereo not shown) [Example 1115] |  |
| 10 | CCCCC1(CC)CS(=O)(=O)c2ccc(N(C)C)cc2C(c2cccc(OCCOCCOCC[N+](C)(C)C)c2)C1O (stereo not shown) [Example 1117] |  |
